ChEMBL document CHEMBL1208682, “New quinoline derivatives: synthesis and investigation of antibacterial and antituberculosis properties” (2010)
≈ marks a conversion by molar mass, not a printed value.

Test system: Mycobacterium tuberculosis
Test: Antituberculosis activity against multi drug-resistant Mycobacterium tuberculosis after 7 days using resazurin dye by broth microdilution assay
Assay type: functional
Conditions: 168 h

| Structure (SMILES) | MIC |
| --- | --- |
| Fc1ccccc1NC(=S)NNc1cc(C(F)(F)F)nc2c(C(F)(F)F)cccc12 | > 50 µM |
| FC(F)(F)c1cc(N/N=C/c2ccc3c(c2)CCO3)c2cccc(C(F)(F)F)c2n1 | 12.5 µM (≈ 5.32 µg/mL) |
| COc1ccc(/C=N/Nc2cc(C(F)(F)F)nc3c(C(F)(F)F)cccc23)c(F)c1 | 6.25 µM (≈ 2.7 µg/mL) |
| Cc1cc(C)cc(NC(=O)NNc2cc(C(F)(F)F)nc3c(C(F)(F)F)cccc23)c1 | 6.25 µM (≈ 2.76 µg/mL) |
| Cn1cccc1/C=N/Nc1cc(C(F)(F)F)nc2c(C(F)(F)F)cccc12 | 25 µM (≈ 9.66 µg/mL) |
| O=C(NNc1cc(C(F)(F)F)nc2c(C(F)(F)F)cccc12)Nc1ccc(F)cc1 | 12.5 µM (≈ 5.4 µg/mL) |
| FC(F)(F)c1cc(N/N=C/c2c[nH]cn2)c2cccc(C(F)(F)F)c2n1 | 6.25 µM (≈ 2.33 µg/mL) |
| COCCNC(=S)NNc1cc(C(F)(F)F)nc2c(C(F)(F)F)cccc12 | 25 µM (≈ 10.3 µg/mL) |
| NNC(=O)c1ccncc1 [ISONIAZID] | 12.5 µM (≈ 1.71 µg/mL) |
| Cn1cc(Cl)c(/C=N/Nc2cc(C(F)(F)F)nc3c(C(F)(F)F)cccc23)n1 | 6.25 µM (≈ 2.64 µg/mL) |
| CC(=O)OCc1ccc(/C=N/Nc2cc(C(F)(F)F)nc3c(C(F)(F)F)cccc23)o1 | > 50 µM |
| Cc1cccc2c(/C=N/Nc3cc(C(F)(F)F)nc4c(C(F)(F)F)cccc34)c[nH]c12 | 12.5 µM (≈ 5.45 µg/mL) |
| Oc1cc(F)ccc1/C=N/Nc1cc(C(F)(F)F)nc2c(C(F)(F)F)cccc12 | > 50 µM |
| N#Cc1cccc(NC(=O)NNc2cc(C(F)(F)F)nc3c(C(F)(F)F)cccc23)c1 | > 50 µM |
| FC(F)C(F)(F)Oc1cccc(/C=N/Nc2cc(C(F)(F)F)nc3c(C(F)(F)F)cccc23)c1 | 25 µM (≈ 12.5 µg/mL) |
| FC(F)(F)c1cc(N/N=C/C2CCCCC2)c2cccc(C(F)(F)F)c2n1 | 6.25 µM (≈ 2.43 µg/mL) |
| CCCCCCC/C=N/Nc1cc(C(F)(F)F)nc2c(C(F)(F)F)cccc12 | 6.25 µM (≈ 2.53 µg/mL) |
| Cc1nc[nH]c1/C=N/Nc1cc(C(F)(F)F)nc2c(C(F)(F)F)cccc12 | 6.25 µM (≈ 2.42 µg/mL) |
| Cn1nnc2cc(/C=N/Nc3cc(C(F)(F)F)nc4c(C(F)(F)F)cccc34)ccc21 | 25 µM (≈ 11 µg/mL) |
| FC(F)(F)c1cc(N/N=C/c2cccnc2)c2cccc(C(F)(F)F)c2n1 | > 50 µM |
| CO[C@H]1/C=C/O[C@@]2(C)Oc3c(C)c(O)c4c(O)c(c(/C=N/N5CCN(C)CC5)c(O)c4c3C2=O)NC(=O)/C(C)=C\C=C\[C@H](C)[C@H](O)[C@@H](C)[C@@H](O)[C@@H](C)[C@H](OC(C)=O)[C@@H]1C [RIFAMPIN] | 25 µM (≈ 20.6 µg/mL) |
| COc1ccccc1NC(=O)NNc1cc(C(F)(F)F)nc2c(C(F)(F)F)cccc12 | 12.5 µM (≈ 5.55 µg/mL) |
| COc1ccc2[nH]cc(/C=N/Nc3cc(C(F)(F)F)nc4c(C(F)(F)F)cccc34)c2c1 | > 50 µM |
| CCCCCNC(=O)NNc1cc(C(F)(F)F)nc2c(C(F)(F)F)cccc12 | > 50 µM |
| FC(F)(F)c1cc(N/N=C/c2cocc2Br)c2cccc(C(F)(F)F)c2n1 | > 50 µM |
| COc1ccc(/C=N/Nc2cc(C(F)(F)F)nc3c(C(F)(F)F)cccc23)cc1O | 12.5 µM (≈ 5.37 µg/mL) |
| FC(F)(F)Oc1cccc(/C=N/Nc2cc(C(F)(F)F)nc3c(C(F)(F)F)cccc23)c1 | 12.5 µM (≈ 5.84 µg/mL) |
| FC(F)(F)c1cc(N/N=C/c2ccc3nonc3c2)c2cccc(C(F)(F)F)c2n1 | 12.5 µM (≈ 5.32 µg/mL) |
| FC(F)(F)c1cc(N/N=C/c2cccs2)c2cccc(C(F)(F)F)c2n1 | > 50 µM |
